Tests used:
DOCK1 (DHR-2 domain) = molecular target: T1, DOCK1 (DHR-2 domain) (Homo sapiens, UniProt Q14185); assay: In vitro GEF assay: Rac activation by DOCK1 DHR-2 domain; format: biochemical, mice and humans; conditions: in words
T1 construct: polypeptide fragments corresponding to the DHR-2 domain of DOCK1 or DOCK2 from mice and humans; Histidine-SUMO (N); made in house; host or cells: E. coli Arctic express (DE3)
T1 sequence (Q14185 1207-1617 limits assumed): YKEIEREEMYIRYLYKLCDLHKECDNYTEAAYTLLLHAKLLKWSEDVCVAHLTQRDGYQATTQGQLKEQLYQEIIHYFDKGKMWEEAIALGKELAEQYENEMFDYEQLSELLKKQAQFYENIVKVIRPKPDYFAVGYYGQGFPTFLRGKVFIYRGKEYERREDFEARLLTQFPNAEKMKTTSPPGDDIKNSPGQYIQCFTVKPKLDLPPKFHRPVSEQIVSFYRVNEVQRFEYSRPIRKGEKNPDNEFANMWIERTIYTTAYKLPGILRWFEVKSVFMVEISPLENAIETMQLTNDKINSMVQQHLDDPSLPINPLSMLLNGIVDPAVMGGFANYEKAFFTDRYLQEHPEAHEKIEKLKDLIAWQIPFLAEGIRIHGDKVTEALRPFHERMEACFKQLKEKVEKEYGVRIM
How it was run: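 Human/mouse His-SUMO DHR-2 fragment preincubated 20 min at RT with compound (1% DMSO) in MES buffer pH 7.0 with 20 μM GDP, then added to GDP-loaded GST-Rac (15 μM) plus 3.6 μM Bodipy-FL-GTP at 30° C. Initial velocity (0–10 s fluorescence slope, ex 488/em 514 nm) vs DMSO control gave IC50.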

[1] = tested on: mouse lung carcinoma cell line (3LL); assay: Tumor growth of subcutaneously transplanted mouse lung carcinoma cells; format: in vivo, C57BL/6 mice
Protocol: The mouse lung carcinoma cell line (3LL) was suspended in 200 μL of PBS(−), and transplanted (5×10^5 cells per mouse) into the dorsal subcutaneous region of C57BL/6 mice (6 weeks old). To a 6:1:1 mixture of PBS/Cremophor EL/ethanol, RT-22 as a representative of the compounds of the present invention was added to a concentration of 0.25 mg/300 μL, and the resulting mixture was loaded into an SMP-300 micro infusion pump (iPRECIO), which was subcutaneously implanted on the previous day of the transplantation, to perform continuous intravenous administration (n=5 mice). The control group was only administered with an equivalent volume of a solvent (a 6:1:1 mixture of PBS/Cremophor EL/ethanol) (n=6 mice). The transverse and longitudinal diameters of the tumor mass were measured over time for a period of 4 weeks from the start of administration, and the tumor volume (V) was calculated according to the formula: V=π/6x√((transverse diameter×longitudinal diameter)^3).

Q: Which results are given for COC(=O)c1cc(S(=O)(=O)N2CCCC2)cn1CC(=O)c1ccc(-c2cccc(C(F)(F)F)c2)cc1 [RT-22, methyl 1-(2-oxo-2-(3′-(trifluoromethyl)-[1,1′-biphenyl]-4-yl)ethyl)-4-(pyrrolidin-1-yl-sulfonyl)-1H-pyrrole-2-carboxylate]?
A: DOCK1-inhibiting activity compared with TBOPP (DOCK1 (DHR-2 domain); GEF assay): higher than those of TBOPP; selective inhibitory activity against DOCK1 compared to TBOPP (DOCK1 (DHR-2 domain); GEF assay): higher than those of TBOPP; selective inhibitory activity against DOCK1 versus DOCK2 (DOCK1 (DHR-2 domain); GEF assay DOCK1 vs DOCK2 DHR-2 domain): higher selective inhibitory activity against DOCK1 than against DOCK2; tumor size as % of that of the control group ([1]; 3LL s.c. in C57BL/6 mice, continuous intravenous administration, 0.25 mg/300 μL, day 26 to day 29): 64 to 69%; tumor growth inhibition compared with TBOPP ([1]; in words): more effective in inhibiting tumor growth than TBOPP

Source: US20220017486A1, “DOCK1-INHIBITING COMPOUND AND USE THEREOF” (KYUSHU UNIVERSITY, NATIONAL UNIVERSITY CORPORATION, priority 2018, published 2022)
